For data set [1], the system named is P-388 leukemia. Kind of data set: Antitumour activity, Test Example 1 (intraperitoneally transplanted--intraperitoneally administered). In kind it is in vivo, BDF1 mouse. The settings on record: i.p., days 1 and 8, mortality observed 30 days, saline control = 0%; for ILS at 50 mg/kg: 50 mg/kg/day active ingredient; for ILS at 6.25 mg/kg: 6.25 mg/kg/day active ingredient; for ILS at 100 mg/kg: 100 mg/kg/day active ingredient. The procedure:
1×10^6 of P-388 leukemia cells per mouse were intraperitoneally transplanted into BDF1 mouse. […] The increase life span of each group was determined on such basis that the medium survival time of a control group to which physiological saline was administered was regarded to be 0% of increase life span (ILS). […] | (Note) *Increase life span is calculated by the following equation: | Increase life span % (ILS) =- | [drawing 18]

Data set [2] in a line: Solubility to a non-aqueous solvent, Test Example 3. The settings on record: 18° to 20° C.; for Solubility, Medium chain triglyceride: medium chain triglyceride (ODO). Type of data set: physicochemical. The procedure:
A stirring magnet was put into a 10 ml or 100 ml egg plant flask equipped with a stopper, and 50 mg of a test compound was introduced into this flask. Further, a suitable amount of a desired solvent was introduced thereinto, and the solubility was determined.

Data set [3] deals with P-388 leukemia. The data set is described as follows: Antitumour activity, Test Example 2 (intraperitoneally transplanted--intravenously injected). The settings on record: 10 mg/kg (active ingredient mg/kg/day), i.v. from the tail, days 1 and 8; fatty emulsion (Formulation Example 10); saline control = 0%. Type of data set: in vivo, BDF1 mouse. The procedure: 1×10^6 of P-388 leukemia cells per mouse were intraperitoneally transplanted to BDF1 mouse. Each formulation (formulated in accordance with the below-mentioned Formulation Example 10) was intravenously injected from the tail on days 1 and 8 after the transplantation.
The increase life span (ILS, %) of each treated group was determined on such basis that the median survival time of a control group to which a physiolosical saline was administered was regarded to be 0% of increase life span (ILS). In the cases where Compounds No. 1 and No. 11 were administered at a dose (active ingredient mg/kg/day) of 10 mg/kg, ILS (%) was 46 and 27, respectively. (Note) * The increase life span was calculated in the
same manner as in Test Example 1.

The mark [4] stands for this setting: Mus musculus, P388, ip, 720 h, 12.5 mg/kg/day active ingredient, read-out: Increase life span (ILS).
Setting [5] is: Mus musculus, P388, ip, 720 h, 25 mg/kg/day active ingredient, read-out: Increase life span (ILS).
[6] abbreviates: Mus musculus, P388, ip, 720 h, read-out: Increase life span (ILS).
[7] abbreviates: 12.5 mg/kg/day active ingredient.

Structures are written as SMILES. A value given as a limit tells only on which side of the number the result lay.

Consider `CN(C)c1ccccc1C(=O)NC(=O)Nc1ccc(Oc2ncc(Cl)cn2)c(C(F)(F)F)c1` [Compound 10, N-[4-(5-chloro-2-pyrimidinyloxy)-3-trifluoromethylphenyl]-N'-[2-(dimethylamino)benzoyl]urea], for which, in the data set with P-388 leukemia [1] (setting [4]), the ILS at 12.5 mg/kg is 39%.
Consider `Cc1cc(NC(=O)NC(=O)c2ccccc2N(C)C)ccc1Oc1ncc(Cl)cn1` [Compound 11, N-[4-(5-chloro-2-pyrimidinyloxy)-3methylphenyl]-N'-[2-(dimethylamino)benzoyl]urea], for which, in data set [2], the “Solubility, Medium chain triglyceride” value was 1.5-1.8% and the “Solubility, Soybean oil” value was 0.15-0.16%. Besides, the ILS at 25 mg/kg with P-388 leukemia [1] (setting [5]) is 99%. The increase in life span (ILS) at 50 mg/kg in the data set with P-388 leukemia [1] (setting [6]) is 132%. The “Increase life span (ILS)” value with P-388 leukemia [3] was 27%.
Consider `Cc1cc(NC(=O)NC(=O)c2ccccc2N(C)C)ccc1Oc1ncc(Br)cn1.Cl` [Compound 2, N-[4-(5-bromo-2-pyrimidinyloxy)-3methylphenyl]-N'-[2-(dimethylamino)benzoyl]urea hydrochloride], for which the “Increase life span (ILS)” value with P-388 leukemia [1] (setting [7]) was determined as 94%; in the data set on P-388 leukemia [1] (25 mg/kg/day active ingredient) it was 206%.
In the case of `CN(C)c1cccc(F)c1C(=O)NC(=O)Nc1ccc(Oc2ncc(Br)cn2)c(Cl)c1` [Compound 4], in the data set on P-388 leukemia [1] (setting [6]), the ILS at 50 mg/kg amounted to 135%.
Regarding `CCN(CC)c1ccccc1C(=O)NC(=O)Nc1ccc(Oc2ncc(Br)cn2)c(C)c1` [Compound 33], the “Solubility, Soybean oil” value in data set [2] is “at least 13.6%”. Moreover, the ILS at 25 mg/kg in the data set with P-388 leukemia [1] (setting [5]) was determined as 49%.
As for `Cc1cc(NC(=O)NC(=O)c2ccccc2N(S(C)(=O)=O)S(C)(=O)=O)ccc1Oc1ncc(Br)cn1` [Compound 54], the ILS at 50 mg/kg with P-388 leukemia [1] (setting [6]) was 49%.
Regarding `CC(=O)N(C)c1ccccc1C(=O)NC(=O)Nc1ccc(Oc2ncc(Br)cn2)c(C)c1` [Compound 52], the ILS at 6.25 mg/kg with P-388 leukemia [1] (setting [6]) is 39%. In the data set on P-388 leukemia [1] (setting [4]), the ILS at 12.5 mg/kg amounted to 139%.
On to `Cc1cc(NC(=O)NC(=O)c2c(F)cccc2N(C)C)ccc1Oc1ncc(Br)cn1` [Compound 3], for which the ILS at 12.5 mg/kg with P-388 leukemia [1] (setting [4]) worked out at 50%. In addition, in the data set on P-388 leukemia [1] (setting [5]), the ILS at 25 mg/kg is 150%.
As for `Cc1cc(NC(=O)NC(=O)c2ccccc2N(C)C)ccc1Oc1ncc(Br)cn1` [Compound 1, N-[4-(5-bromo-2-pyrimidinyloxy)-3methylphenyl]-N'-[2-(dimethylamino)benzoyl]urea], the “Solubility, Medium chain triglyceride” value in data set [2] is reported as 2.1-2.3%. In addition, the “Solubility, Soybean oil” value in data set [2] is on record as 0.46-0.49%. The “Increase life span (ILS)” value with P-388 leukemia [1] (setting [7]) came to 126%; in the data set on P-388 leukemia [1] (25 mg/kg/day active ingredient), 183%; in the data set with P-388 leukemia [3], 46%.
As to `Cc1cc(NC(=O)NC(=O)c2ccccc2N)ccc1Oc1ncc(Br)cn1` [Compound 27, N-(2-aminobenzoyl)-N'-[4-(5-bromo-2-pyrimidinyloxy)-3-methylphenyl]urea], in the data set with P-388 leukemia [1] (setting [4]), the ILS at 12.5 mg/kg is 126%. Besides, the ILS at 25 mg/kg with P-388 leukemia [1] (setting [5]) turned out to be 160%.
Regarding `Cc1cc(NC(=O)NC(=O)c2ccccc2N2CCOCC2)ccc1Oc1ncc(Br)cn1` [Compound 34, N-[4-(5-bromo-2-pyrimidinyloxy)-3-methylphenyl]-N'-(2-morpholinobenzoyl)urea], in the data set on P-388 leukemia [1] (setting [6]), the ILS at 6.25 mg/kg came out at 49%.
In the case of `CN(C)c1ccccc1C(=O)NC(=O)Nc1ccc(Oc2ncc(Br)cn2)c(C(F)(F)F)c1` [Compound 9, N-[4-(5-bromo-pyrimidinyloxy)-3-trifluoromethylphenyl]-N'-[2(dimethylamino)benzoyl]urea], in the data set with P-388 leukemia [1] (setting [4]), the ILS at 12.5 mg/kg stood at 80%.
`CCCCCCCCC(=O)Nc1ccccc1C(=O)NC(=O)Nc1ccc(Oc2ncc(Br)cn2)c(C)c1` [Compound 51]: the ILS at 50 mg/kg in the data set on P-388 leukemia [1] (setting [6]) turned out to be 184%.
As for `CC(=O)Nc1ccccc1C(=O)NC(=O)Nc1ccc(Oc2ncc(Br)cn2)c(C)c1` [Compound 49, N-[2-(acetylamino]benzoyl]-N'-[4-(5-bromo-2-pyrimidinyloxy)-3-methylphenyl]urea], the ILS at 12.5 mg/kg with P-388 leukemia [1] (setting [4]) is 39%. Also, the increase in lifespan (ILS) at 25 mg/kg in the data set on P-388 leukemia [1] (setting [5]) stood at 59%.
Take `CN(C)c1ccccc1C(=O)NC(=O)Nc1ccc(Oc2ncc(Cl)cn2)c([N+](=O)[O-])c1` [Compound 36]: the increase in lifespan (ILS) at 100 mg/kg in the data set on P-388 leukemia [1] (setting [6]) is 68%.
As for `COc1cc(NC(=O)NC(=O)c2ccccc2N(C)C)ccc1Oc1ncc(Cl)cn1` [Compound 35], the ILS at 100 mg/kg with P-388 leukemia [1] (setting [6]) is 27%. The ILS at 200 mg/kg with P-388 leukemia [1] (Mus musculus, P388, ip, 720 h, 200 mg/kg/day active ingredient, read-out: Increase life span (ILS)) was determined as 53%.
Turning to `CN(C)c1ccccc1C(=O)NC(=O)Nc1ccc(Oc2ncc(Br)cn2)c([N+](=O)[O-])c1` [Compound 13], the ILS at 50 mg/kg in the data set with P-388 leukemia [1] (setting [6]) came out at 27%.
In the case of `CCCC(=O)Nc1ccccc1C(=O)NC(=O)Nc1ccc(Oc2ncc(Br)cn2)c(C)c1` [Compound 50], in the data set with P-388 leukemia [1] (setting [5]), the ILS at 25 mg/kg turned out to be 49%. For the same compound, the ILS at 50 mg/kg with P-388 leukemia [1] (setting [6]) is 150%.
`Nc1ccccc1C(=O)NC(=O)Nc1ccc(Oc2ncc(Br)cn2)c(Cl)c1` [Compound 26, N-(2-aminobenzoyl)-N'-[4-(5-bromo-2-pyrimidinyloxy)-3-chlorophenyl]urea]: in the data set on P-388 leukemia [1] (setting [4]), the ILS at 12.5 mg/kg was determined as 93%. In the data set on P-388 leukemia [1] (setting [5]), the ILS at 25 mg/kg was over 137%.

Source of the values: patent publication US5102884A, “Substituted benzoylurea compounds or their salts, processes for their production and antitumour compositions containing them” (Ishihara Sangyo Kaisha Ltd., priority 1989, dated 1992).
